Experiment [1] deals with MSSA strain 8325. The experiment in a line: resistance assay, exposure to incrementally increasing concentrations. The class given is cell-based, Staphylococcus aureus. To be noted: MSSA 8325; concentration doubled daily from 1/32 to 4× MIC over 8 days.
For experiment [2], the system named is MRSA strain MW2. The description is as above. The class given is cell-based, Staphylococcus aureus. To be noted: concentration doubled daily from 1/32 to 4× MIC over 8 days.

`C/C(=C\C(=O)OCCCCCCCCC(=O)O)C[C@@H]1OC[C@H](C[C@@H]2O[C@H]2[C@@H](C)[C@H](C)O)[C@@H](O)[C@H]1O` [mupirocin, reference compound]: the development of resistance result in experiment [1] and in experiment [2] was “developed resistance” each time.

Source of the values: patent US11111484B2, “Streptococcus bacteriophage lysins for detection and treatment of gram positive bacteria” (priority 2011, dated 2021).
